Laboratory results from ChEMBL document CHEMBL1151537 (Bioorg Med Chem Lett, 1994).
Values belong to the compound of their own block, whether it stands above or below them.

What was measured:
Melatonin receptor = Melatonin receptor (Gallus gallus, UniProt P49288+P51050+P49285); assay: Binding affinity towards melatonin receptor using 2-[125I]iodomelatonin as radioligand in chick brain membranes; type: cell membranes, Membrane
Xenopus laevis [1] = species on record: Xenopus laevis; assay: Agonistic activity was determined in a pigment aggregation model using cultured melanophores isolated from the neural crest of Xenopus laevis embryos; partial; type: functional; settings: frog; filed as partial agonist
Xenopus laevis [2] = species on record: Xenopus laevis; assay: Agonistic activity was determined in a pigment aggregation model using cultured melanophores isolated from the neural crest of Xenopus laevis embryos; Partial; type: functional; settings: frog; filed as partial agonist
Xenopus laevis [3] = species on record: Xenopus laevis; assay: Agonistic activity was determined in a pigment aggregation model using cultured melanophores isolated from the neural crest of Xenopus laevis embryos; agonist; type: functional; settings: frog; filed as agonist
Xenopus laevis [4] = species on record: Xenopus laevis; assay: Concentration producing half maximal aggregation of pigment granules in the centre of the melanophore isolated from the neural crest of Xenopus laevis embryos was determined; type: functional, frog
Xenopus laevis [5] = species on record: Xenopus laevis; assay: Agonistic activity was determined in a pigment aggregation model using cultured melanophores isolated from the neural crest of Xenopus laevis embryoss; agonist; type: functional; settings: frog; filed as agonist

Ki (Melatonin receptor): 0.122 µM
Compound: CC(=O)NCCc1c(Br)[nH]c2cc(Br)ccc12
Activity (Xenopus laevis [1]): Partial agonist

Ki (Melatonin receptor): 0.027 µM
Compound: CCC(=O)NCCc1c(Br)[nH]c2cc(Br)ccc12

Ki (Melatonin receptor): 0.153 µM
Compound: O=C(CBr)NCCc1c[nH]c2ccccc12

Ki (Melatonin receptor): 0.098 µM
Compound: CCCC(=O)NCCc1c[nH]c2ccccc12
Activity (Xenopus laevis [2]): Partial agonist

Ki (Melatonin receptor): 0.0023 µM
Compound: CCCC(=O)NCCc1c(Br)[nH]c2cc(Br)ccc12
Activity (Xenopus laevis [1]): Partial agonist

Compound: CCCC(=O)NCCc1c(-c2ccccc2)[nH]c2ccccc12
Activity (Xenopus laevis [1]): Partial agonist

Ki (Melatonin receptor): 0.138 µM
Compound: O=C(NCCc1c(Br)[nH]c2cc(Br)ccc12)C1CC1
Activity (Xenopus laevis [3]): Agonist

Compound: O=C(NCCc1c(-c2ccccc2)[nH]c2ccccc12)C(F)(F)F
Activity (Xenopus laevis [1]): Partial agonist

Ki (Melatonin receptor): 2.6 µM
Compound: O=C(NCCc1c[nH]c2ccccc12)C1CC1

Ki (Melatonin receptor): 0.398 µM
Compound: CCC(=O)NCCc1c[nH]c2ccccc12

Ki (Melatonin receptor): 0.014 µM
Compound: O=C(CBr)NCCc1c(Br)[nH]c2ccccc12
Activity (Xenopus laevis [3]): Agonist

Compound: CCC(=O)NCCc1c(-c2ccccc2)[nH]c2ccccc12
Activity (Xenopus laevis [3]): Agonist
EC50 (Xenopus laevis [4]): 0.05 µM

Compound: CC(=O)NCCc1c[nH]c2ccccc12
Ki (Melatonin receptor): 0.701 µM

Ki (Melatonin receptor): 0.367 µM
Compound: O=C(NCCc1c(Br)[nH]c2cc(Br)ccc12)C(F)(F)F

Compound: COc1ccc2[nH]cc(CCNC(C)=O)c2c1
Activity (Xenopus laevis [3]): Agonist

Ki (Melatonin receptor): 0.138 µM
Compound: CC(=O)NCCc1c(Br)[nH]c2ccccc12
Activity (Xenopus laevis [3]): Agonist

Ki (Melatonin receptor): 0.377 µM
Compound: O=C(NCCc1c[nH]c2ccccc12)C(F)(F)F
Activity (Xenopus laevis [2]): Partial agonist

Compound: CC(=O)NCCc1c(-c2ccccc2)[nH]c2ccccc12
Activity (Xenopus laevis [5]): Agonist
EC50 (Xenopus laevis [4]): 0.07 µM
